Structures are written as SMILES. Active and inactive are the calls of the source. The rule behind the calls is not given here. Bounds are passed on as bounds.

Experiment [1] has as its system Punta Toro virus. Type of experiment: functional, organism-based.
Experiment [2] relates to Mammalian orthoreovirus 1. Type of experiment: functional, organism-based.
Experiment [3] deals with Respiratory syncytial virus. The format is functional, organism-based.
Experiment [4] concerns the target Glutamate NMDA receptor. As to the kind of experiment: Antagonist activity at NMDA receptor in cerebellar granule neurons assessed as inhibition of glutamate-induced increase in intracellular calcium concentration by fluorometric assay. The format is functional, cell-based. In general terms: Calcium flux is commonly read through the fluorescence of an indicator in the cells.

For experiment [5], the system named is Coxsackievirus B4. The format is functional, organism-based.
In experiment [6] the test system is Human respirovirus 3. Type of experiment: functional, organism-based.
The test system of experiment [7] is Feline coronavirus. Type of experiment: functional, organism-based.
Experiment [8] deals with Human alphaherpesvirus 1. Type of experiment: functional, organism-based.
For experiment [9], the system named is Vesicular stomatitis virus. The format is functional, organism-based.
The species entered for experiment [10] is Rattus norvegicus. As to the kind of experiment: Inhibition of [3H]dopamine uptake in Wistar rat striatum synaptosomes at 100 uM by scintillation spectrometry. The format is functional, subcellular. Details: scale not given: the % may be the effect or the level left.
For experiment [11], the system named is Sindbis virus. The format is functional, organism-based.
The test system of experiment [12] is Human alphaherpesvirus 2. The format is functional, organism-based.
In experiment [13] the target is Glutamate NMDA receptor. As to the kind of experiment: Antagonist activity at NMDA receptor in cerebellar granule neurons assessed as inhibition of NMDA-induced increase in intracellular calcium concentration by fluorometric assay. The format is functional, cell-based.

As for `COc1cccc(CNC23CC4CC(CC2C4)C3)c1`, the outcome in experiment [1], in experiment [2], in [3], in experiment [5], in [6] and in experiment [7] was inactive. Further, the outcome in [8], in [9], in [11] and in [12] was inactive. Further, the IC50 (commonly the point on the concentration scale where inhibition reaches its midpoint) is greater than 500 µM in experiment [4] and 87 µM in experiment [13]. The compound also showed an Activity in experiment [10] of 45.8%.

On to `COc1ccc(CNC23CC4CC(CC2C4)C3)cc1`, for which the result in [1], in experiment [2], in [3], in experiment [5], in [6] and in experiment [7] was inactive. In addition, the outcome in experiment [8], in experiment [9], in [11] and in experiment [12] was inactive. The IC50 in experiment [4] and in [13] was greater than 200 µM each time. This compound also had an Activity in experiment [10] of 63.9%.

Take `N=C(N)NCC12CC3CC(CC1C3)C2`: the outcome in experiment [1], in [2], in [3], in experiment [5], in experiment [6] and in experiment [7] was inactive. Besides, the outcome in [8], in experiment [9], in [11] and in experiment [12] was inactive. The Activity in experiment [10] was determined as 119%.

In the case of `c1ccc(CNC23CC4CC(CC2C4)C3)cc1`, the result in experiment [1], in experiment [2], in experiment [3], in experiment [5], in [6] and in experiment [7] was inactive. For the same compound, the outcome in experiment [8], in experiment [9], in experiment [11] and in [12] was inactive. In addition, the IC50 in [4] and in experiment [13] was greater than 200 µM throughout. In experiment [10], the Activity was 31.7%.

For the compound `CNCC12CC3CC(CC1C3)C2`, the result in experiment [1], in [2], in experiment [3], in [5], in [6] and in experiment [7] was inactive. The result in experiment [8], in experiment [9], in experiment [11] and in experiment [12] was inactive. Moreover, the IC50 was greater than 500 µM in experiment [4] and 71 µM in [13]. This compound registered an Activity in [10] of 76.3%.

`CC12CC3CC(C)(C1)CC(N)(C3)C2`: in experiment [10], the Activity was found to be 53.7%.

Take `CNC12CC3CC(CC1C3)C2`: the result in [1], in experiment [2], in [3], in experiment [5], in experiment [6] and in experiment [7] was inactive. Besides, the result in [8], in experiment [9], in experiment [11] and in experiment [12] was inactive. Further, the IC50 in experiment [4] came to 205 µM; in experiment [13] it was 65 µM. The Activity in experiment [10] is 65.2%.

Consider `CNC12CC3(C)CC1CC3(C)C2`, for which the outcome in experiment [1], in experiment [2], in experiment [3], in experiment [5], in experiment [6] and in experiment [7] was inactive. Moreover, the outcome in experiment [8], in experiment [9], in experiment [11] and in experiment [12] was inactive. The same compound displayed an Activity in experiment [10] of 74.6%. Moreover, the IC50 in [13] turned out to be 35 µM.

For the compound `CN(Cc1ccccc1)C12CC3(C)CC1CC3(C)C2`, the outcome in [1], in experiment [2], in experiment [3], in experiment [5], in [6] and in experiment [7] was inactive. Besides, the result in [8], in experiment [9], in experiment [11] and in [12] was inactive. Further, the half-maximal inhibitory concentration (IC50) in experiment [4] and in experiment [13] was greater than 200 µM each time.

`CC12CC3CC1(C)CC3(CNC(=N)N)C2`: the result in experiment [1], in [2], in experiment [3], in [5], in experiment [6] and in [7] was inactive. For the same compound, the outcome in experiment [8], in experiment [9], in experiment [11] and in experiment [12] was inactive. Besides, the values for the IC50 in experiment [4] and in [13] were 104 µM and 7.1 µM, respectively.

For the compound `CN(C)CC12CC3(C)CC1CC3(C)C2`, the result in experiment [1], in [2], in experiment [3], in [5], in [6] and in experiment [7] was inactive. Moreover, the outcome in [8], in experiment [9], in experiment [11] and in experiment [12] was inactive. For the same compound, the IC50 in experiment [4] and in experiment [13] was greater than 200 µM each time.

Turning to `CC12CC3CC1(C)CC3(NCc1cccs1)C2`, the result in [1], in experiment [2], in [3], in [5], in [6] and in experiment [7] was inactive. For the same compound, the result in experiment [8], in experiment [9], in experiment [11] and in experiment [12] was inactive. In addition, the IC50 came to 204 µM in experiment [4] and 80 µM in experiment [13].

In the case of `NC(N)=NCC12CC3CC(CC1C3)C2`, the IC50 in [4] is 453 µM; in experiment [13], 25 µM.

Regarding `CC12CC3CC1(C)CC3(NCc1ccccc1)C2`, the outcome in [1], in experiment [2], in experiment [3], in experiment [5], in [6] and in experiment [7] was inactive. The result in [8], in experiment [9], in experiment [11] and in experiment [12] was inactive. Besides, the values for the IC50 in experiment [4] and in experiment [13] were 143 µM and 70 µM, respectively.

The values above are taken from ChEMBL document CHEMBL1151696 (Bioorg Med Chem, 2008).
